Common to all, as to type: cell-based
One assay deals with T1, TLR7 (Homo sapiens, UniProt Q9NYK1).
T1 construct: Fresh blood was collected from normal human donors; endogenous in cells; host or cells: human PBMCs from fresh donor blood
T1 sequence (Q9NYK1 27-1049): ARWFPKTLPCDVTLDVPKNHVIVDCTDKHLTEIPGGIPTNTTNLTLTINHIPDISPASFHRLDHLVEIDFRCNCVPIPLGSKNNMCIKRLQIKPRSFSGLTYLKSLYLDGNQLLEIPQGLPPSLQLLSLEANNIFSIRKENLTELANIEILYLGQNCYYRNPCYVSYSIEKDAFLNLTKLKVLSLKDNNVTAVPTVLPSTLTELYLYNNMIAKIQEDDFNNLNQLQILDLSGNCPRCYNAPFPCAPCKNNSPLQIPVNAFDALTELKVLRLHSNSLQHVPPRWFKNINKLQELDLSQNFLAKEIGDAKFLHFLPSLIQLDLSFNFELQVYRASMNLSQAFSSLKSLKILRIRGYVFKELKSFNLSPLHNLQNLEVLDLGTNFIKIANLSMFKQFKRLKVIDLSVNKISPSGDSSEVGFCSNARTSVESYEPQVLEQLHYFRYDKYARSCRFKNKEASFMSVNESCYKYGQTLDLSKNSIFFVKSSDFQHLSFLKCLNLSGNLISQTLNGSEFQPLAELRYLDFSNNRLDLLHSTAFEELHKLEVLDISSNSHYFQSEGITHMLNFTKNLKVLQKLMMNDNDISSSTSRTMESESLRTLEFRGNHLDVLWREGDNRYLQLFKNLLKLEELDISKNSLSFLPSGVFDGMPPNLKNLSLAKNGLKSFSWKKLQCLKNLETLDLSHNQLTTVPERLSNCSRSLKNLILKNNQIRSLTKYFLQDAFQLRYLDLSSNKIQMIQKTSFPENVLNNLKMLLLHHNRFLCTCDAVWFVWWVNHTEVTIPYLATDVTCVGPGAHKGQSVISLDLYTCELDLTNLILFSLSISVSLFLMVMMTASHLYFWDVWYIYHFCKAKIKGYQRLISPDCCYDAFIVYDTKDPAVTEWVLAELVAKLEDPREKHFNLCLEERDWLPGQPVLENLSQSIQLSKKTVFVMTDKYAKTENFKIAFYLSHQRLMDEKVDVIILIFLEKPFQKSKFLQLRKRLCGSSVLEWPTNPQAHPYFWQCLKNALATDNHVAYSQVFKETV
The assay can be described thus: huPBMC TLR7 Antagonist IFNα Assay. Particulars: human PBMCs stimulated with ssRNA40 10 μg/mL (DOTAP), 14-16 hrs; IFNα2b AlphaLISA read-out. As for the experimental part:
(§1) Compounds were generally serially diluted (1/3) in DMSO and plated on sterile 384 well tissue culture plates and stored until ready for use. Each ten-point dilution was typically plated in triplicate in parallel rows.
(§2) Fresh blood was collected from normal human donors underwritten informed consent in heparinized syringes on the morning of the assay. The blood was diluted in RPMI-1640 medium and the white blood cells were separated from red blood cells by centrifugation (800 g 15′ 0 acceleration, 0 brake) on a Ficoll cushion. Peripheral blood mononuclear cells (PBMCs) were separated from platelets by a series of low-speed centrifugations (1000RPM 10′) in PBS+5% HI—FBS and 1 mM EDTA. Purified PBMCs were re-suspended in assay medium (RPMI-1640 w Glutamax (Invitrogen) supplemented with 5% HI—FBS, 10 mM HEPES, 50 uM β-mercaptoethanol, and 100 mG/L penicillin/streptomycin cocktail). Viable PBMCs were counted on a hemacytometer and kept on ice until ready for plating.
(§3) A 4× concentration (4 ug/ml or 40 ug/ml for TLR8 or TLR7 assays, respectively) of the TLR7/8 agonist ssRNA40 (IDT) was complexed with 10% DOTAP (Roche) in assay medium for 30 min prior to addition to the PBMC suspension (5 million cells/ml). After addition, the final concentration of ssRNA40 in the TLR7/8 stimulated PBMC suspension was 1 μg/ml for TLR8 assay, and 10 μg/mL for the TLR7 assay. The final DOTAP concentration was 2.5%. Diluted PBMCs (5 million cells/ml) were treated with 4×TLR9 agonist ODN2216 (Invivogen). Final concentration of ODN2216 in TLR9 stimulated PBMC suspension was 0.3 μM.
(§4) Agonist stimulated PBMCs were plated on the compound treated 384 well plates at 150,000 cells/well. Un-stimulated PBMCs were plated as controls on each plate. Plating volume was 40 μL per well. DMSO concentration in each well was 0.25%.
(§5) A separate plate, without compounds, with titrations of ssRNA40 and ODN2216 was included in every assay to measure agonist response of each donor's PBMC prep. Assay plates were placed in a tissue culture incubator (37° C., 5% CO2) for 14-16 hrs. After this incubation, the plates were centrifuged and stored at −20° C. until they were assayed.
(§6) IL-6 TR-FRET Assay for TLR8 activity: • 1) Cisbio Human IL-6 kit, 20,000 tests (62TNFPEC), and GNF High-Base TC 384 well plates (cat #789163G) were used; • 2) the Anti-TIL-6 Cryptate conjugate and the Anti-IL-6 XL665 conjugate were diluted 1:20 in Reconstitution Buffer; • 3) a 1:1 mixture of 3 μl/well Anti-IL-6 Cryptate conjugate and 3 μl/well Anti-IL-6 XL665 conjugate was prepared; • 4) 6 μl/well HTRF dilution mastermix was added to 6 μl of transferred supernatant samples in proxiplates; • 5) The plates were incubated for 3 hrs at rt in the dark; and • 6) the levels of IL-6 production was measured using an Envision plate reader (665 nm (emmission)/590 nm (excitation)) with HTRF settings and ratiometric read-out: (XL665 emission/Eu Cryptate emission)×10,000. IFNα2b AlphaLISA Assay for TLR7 or TLR9 activity After thawing the assay plates, 6 μL of supernatant samples were transferred to a low-volume AlphaPlate 384SW (Perkin-Elmer). The concentration of IFNα in supernatants was measured using the IFNα2b AlphaLISA Assay (Perkin-Elmer: AL297F). 3 μL of IFNα acceptor beads/biotinylated antibody solution was added first, using laboratory automation. After an hour incubation, […] of streptavidin […] bead solution was added. The plates containing this mixture were incubated in the dark for an hour and read on an appropriate plate reader at reading parameters set by the manufacturer. (Envision, EnSpire: Perkin-Elmer).
A general note: Alpha assays give light when donor and acceptor beads are brought close together.

The target in another assay is T2, TLR9 (Homo sapiens, UniProt Q9NR96).
T2 construct: Fresh blood was collected from normal human donors; endogenous in cells; host or cells: human PBMCs from fresh donor blood
T2 sequence (Q9NR96 26-1032): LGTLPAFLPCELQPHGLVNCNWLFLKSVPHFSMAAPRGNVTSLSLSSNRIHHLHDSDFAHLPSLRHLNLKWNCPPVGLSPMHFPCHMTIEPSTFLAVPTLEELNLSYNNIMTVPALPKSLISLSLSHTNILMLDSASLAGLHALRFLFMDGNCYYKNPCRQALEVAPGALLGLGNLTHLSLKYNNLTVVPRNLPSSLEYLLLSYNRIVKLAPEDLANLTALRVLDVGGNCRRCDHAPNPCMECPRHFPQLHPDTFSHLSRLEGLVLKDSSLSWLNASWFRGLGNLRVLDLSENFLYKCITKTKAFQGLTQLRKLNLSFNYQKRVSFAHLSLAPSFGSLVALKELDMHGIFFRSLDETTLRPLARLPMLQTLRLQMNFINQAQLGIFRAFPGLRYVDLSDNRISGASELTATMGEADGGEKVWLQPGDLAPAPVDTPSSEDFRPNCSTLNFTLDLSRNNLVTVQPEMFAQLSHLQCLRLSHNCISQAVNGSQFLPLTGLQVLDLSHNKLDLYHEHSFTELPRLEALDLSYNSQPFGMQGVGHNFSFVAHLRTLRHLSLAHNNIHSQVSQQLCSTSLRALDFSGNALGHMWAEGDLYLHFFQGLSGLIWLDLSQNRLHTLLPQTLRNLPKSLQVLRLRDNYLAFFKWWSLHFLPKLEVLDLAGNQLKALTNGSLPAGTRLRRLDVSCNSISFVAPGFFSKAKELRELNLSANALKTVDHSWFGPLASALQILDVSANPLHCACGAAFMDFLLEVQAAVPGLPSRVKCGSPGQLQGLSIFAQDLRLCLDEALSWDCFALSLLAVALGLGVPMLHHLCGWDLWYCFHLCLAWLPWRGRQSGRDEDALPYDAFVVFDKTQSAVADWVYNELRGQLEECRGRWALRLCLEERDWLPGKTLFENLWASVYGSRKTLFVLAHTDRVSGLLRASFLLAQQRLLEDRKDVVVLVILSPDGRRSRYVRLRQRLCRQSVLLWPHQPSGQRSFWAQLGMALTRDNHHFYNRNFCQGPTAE
The assay can be described thus: huPBMC TLR9 Antagonist IFNα Assay. Particulars: human PBMCs stimulated with ODN2216 0.3 μM, 14-16 hrs; IFNα2b AlphaLISA read-out. The method, then: as §1, §2, §3, §4, §5, §6

The next assay concerns the target T3, TLR8 (Homo sapiens, UniProt Q9NR97).
T3 sequence (Q9NR97 27-1041): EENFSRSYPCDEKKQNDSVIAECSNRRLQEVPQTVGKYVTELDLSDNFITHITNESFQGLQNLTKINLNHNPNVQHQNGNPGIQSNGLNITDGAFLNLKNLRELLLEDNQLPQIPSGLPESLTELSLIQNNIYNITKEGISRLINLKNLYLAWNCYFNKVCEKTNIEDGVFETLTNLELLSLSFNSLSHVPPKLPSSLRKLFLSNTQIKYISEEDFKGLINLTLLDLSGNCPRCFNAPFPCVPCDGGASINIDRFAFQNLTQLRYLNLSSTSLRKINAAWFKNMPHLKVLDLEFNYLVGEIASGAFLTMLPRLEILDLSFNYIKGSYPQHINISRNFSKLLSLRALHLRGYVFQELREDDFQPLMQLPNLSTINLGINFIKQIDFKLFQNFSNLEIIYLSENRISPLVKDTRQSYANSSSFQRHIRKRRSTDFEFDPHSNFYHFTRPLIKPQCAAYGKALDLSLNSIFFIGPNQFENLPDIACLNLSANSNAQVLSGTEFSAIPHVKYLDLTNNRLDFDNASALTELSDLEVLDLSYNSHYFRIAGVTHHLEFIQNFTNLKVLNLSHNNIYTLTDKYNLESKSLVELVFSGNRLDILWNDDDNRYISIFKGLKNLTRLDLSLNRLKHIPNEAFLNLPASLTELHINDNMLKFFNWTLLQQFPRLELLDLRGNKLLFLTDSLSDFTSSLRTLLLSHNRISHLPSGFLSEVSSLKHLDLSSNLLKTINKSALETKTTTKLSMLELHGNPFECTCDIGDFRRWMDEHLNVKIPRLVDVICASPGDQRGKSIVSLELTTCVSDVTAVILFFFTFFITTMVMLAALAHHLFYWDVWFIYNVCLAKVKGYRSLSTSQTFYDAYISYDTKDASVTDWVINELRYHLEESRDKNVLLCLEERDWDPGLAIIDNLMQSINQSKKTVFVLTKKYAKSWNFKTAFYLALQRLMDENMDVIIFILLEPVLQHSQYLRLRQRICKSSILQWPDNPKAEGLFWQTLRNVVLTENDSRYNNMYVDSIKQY
As to the kind of experiment: huPBMC TLR8 Antagonist IL-6 TR-FRET Assay. Further details: Fresh blood was collected from normal human donors; endogenous in cells; host or cells: human PBMCs from fresh donor blood. Particulars: human PBMCs stimulated with ssRNA40 1 μg/ml (DOTAP), 14-16 hrs; IL-6 TR-FRET read-out. The procedure, abridged: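 Human PBMCs from fresh donor blood (150,000 cells/well) stimulated 14–16 h at 37 °C with DOTAP-complexed ssRNA40 (final 1 μg/ml for TLR8, 10 μg/mL for TLR7) or ODN2216 (final 0.3 μM, TLR9), 0.25% DMSO, ten-point 1/3 compound dilutions. Supernatant IL-6 read by HTRF (TLR8); IFNα by IFNα2b AlphaLISA (TLR7/TLR9).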

We go through four compounds from patent US20240376099A1, “COMPOUNDS AND COMPOSITIONS AS INHIBITORS OF ENDOSOMAL TOLL-LIKE RECEPTORS” (Novartis AG, priority 2016, published 2024).

In general, IC50 refers to the concentration that inhibits the measured activity by half.

For the compound `CC(=O)NC12CCC(Cn3nc(C)c4c3CCN(c3cc(C)nc5c3cnn5C)C4)(CC1)CC2` [compound 47, N-(4-((5-(1,6-dimethyl-1H-pyrazolo[3,4-b]pyridin-4-yl)-3-methyl-4,5,6,7-tetrahydro-1H-pyrazolo[4,3-c]pyridin-1-yl)methyl)bicyclo[2.2.2]octan-1-yl)acetamide], the values for the IC50 at TLR7 and on TLR9 were 4 nM and over 10000 nM, respectively.
Regarding `Cc1cc(N2CCc3c(c(C)nn3CC34CCC(NC(=O)CN(C)S(C)(=O)=O)(CC3)CC4)C2)c2cnn(C)c2n1` [compound 138, N-(4-((5-(1,6-dimethyl-1H-pyrazolo[3,4-b]pyridin-4-yl)-3-methyl-4,5,6,7-tetrahydro-1H-pyrazolo[4,3-c]pyridin-1-yl)methyl)bicyclo[2.2.2]octan-1-yl)-2-(N-methylmethylsulfonamido)acetamide], the IC50 amounted to 6 nM at TLR7 and 2790 nM at TLR8.
The matching figures for `CC(=O)N(C)CC(=O)NC12CCC(Cn3nc(C)c4c3CCN(c3cc(C)nc5c3cnn5C)C4)(CC1)CC2` [compound 139, N-(4-((5-(1,6-dimethyl-1H-pyrazolo[3,4-b]pyridin-4-yl)-3-methyl-4,5,6,7-tetrahydro-1H-pyrazolo[4,3-c]pyridin-1-yl)methyl)bicyclo[2.2.2]octan-1-yl)-2-(N-methylacetamido)acetamide]: 67 nM and 3540 nM.
The matching figures for `CCn1ncc2c(N3CCc4c(c(C)nn4CC45CCC(NC(=O)OC(C)(C)C)(CC4)CC5)C3)cc(C)nc21` [compound 145, tert-butyl (4-((5-(1-ethyl-6-methyl-1H-pyrazolo[3,4-b]pyridin-4-yl)-3-methyl-4,5,6,7-tetrahydro-1H-pyrazolo[4,3-c]pyridin-1-yl)methyl)bicyclo[2.2.2]octan-1-yl)carbamate]: 61 nM and over 10000 nM.
